Like-named read-outs stand apart in the source and are kept apart here.
Test system: α7 integrin (LacZ reporter in α7LacZ+/− myoblasts)
Experiment: qHTS of the LOPAC library and MLSMR (online screen, α7LacZ+/− myoblasts)
Conditions: for activation at 0.307 µM / activation at 1.53 µM / activation at 7.66 µM / activation at 38.3 µM / Emax / EC50: Mus musculus, Myoblast; for activation at 0.307 µM: read-out: Activity at 0.307 uM [%] **; for activation at 1.53 µM: read-out: Activity at 1.530 uM [%] **; for activation at 7.66 µM: read-out: Activity at 7.660 uM [%] **; for activation at 38.3 µM: read-out: Activity at 38.30uM [%] **; for EC50: read-out: Fit LogAC50 (converted)
[1] = 48 h, read-out: Fit Infinite Activity [%]

SMILES | activation at 0.307 µM (48 h) [%] | activation at 1.53 µM (48 h) [%] | activation at 7.66 µM (48 h) [%] | activation at 38.3 µM (48 h) [%] | Emax [1] [%] | Emax (read-out: Max Response [%]) [%] | EC50 [µM] | Score (Table 8 Compound data)
CCc1ccc(Sc2cc(C(=O)NCCN3CCOCC3)c3ccccc3n2)cc1 [Compound 214] | 13.2 | 16.1 | 43.9 | 101 | 108 | 101 |  | 
O=C(NC1CCCC1)c1ccc(CS(=O)(=O)Cc2ccccc2F)o1 [Compound 7] | 13.4 | 25.3 | 80.6 | 105 | 107 |  | 4.47 | 
CC1(C)CC(O)=C/C(=N\c2ccc(C(=O)O)c(O)c2)C1 [Compound 99] | 0.744 | 1.73 | 44.4 | 114 | 121 | 114 | 10 | 
CS(=O)(=O)c1ccc(Cl)c(NC(=O)CSc2nncn2-c2ccccc2)c1 [Compound 55] | -24.6 | -12.1 | 3.46 | 252 | 253 | 252 | 12.6 | 
COc1cccc(NC(=O)c2ccc3c(c2)CCCC3)c1 [Compound 162] | -31.8 | -27.5 | 26.3 | 54.3 | 55.3 | 54.3 |  | 
CS(=O)(=O)Cc1cccc(C(=O)NN(c2ccccc2)c2ccccc2)c1 [Compound 102] | 10.3 | 11.3 | 24.3 | 159 | 160 | 159 | 12.6 | 
c1ccc(CN2CCCC3(CCCN(Cc4nc(CC5CC5)no4)C3)C2)cc1 (stereo not drawn) [Compound 200] | -40.9 | -35.8 | 1.57 | 46.2 | 56.6 | 46.2 |  | 
CCOc1ccc(S(=O)(=O)NCCC(=O)NCC(c2cccs2)N2CCOCC2)cc1 (stereo not drawn) [Compound 14] | -21.6 | 3.54 | 59.1 | 61.7 | 62.8 |  | 2.24 | 
CNP(=O)(Oc1ccccc1)OC12CC3CC(CC(C3)C1)C2 (stereo not drawn) [Compound 182] | 0 | 0 | 34.7 | 93.6 | 98.2 | 93.6 | 10 | 
Cc1ccc(CNc2ncnc(N)c2[N+](=O)[O-])cc1 [Compound 120] | 17.8 | 33.8 | 63.4 | 97.4 | 127 | 97.4 | 10 | 
COC(=O)C1=C(C)N=C(C)/C(=C(/O)OC)C1c1ccccc1OCc1c(C)no[n+]1[O-] (stereo not drawn) [Compound 12] | 12.3 | 36.5 | 84.6 | 100 | 102 |  | 2.82 | 
Cc1ccc(NC(=O)NCc2nc3ccccc3n2C)cc1 [Compound 77] | -33.5 | -19.7 | 54.7 | 85.1 | 87.1 | 85.1 | 4.47 | 
COC(=O)c1ccccc1NC(=O)c1cc[n+]([O-])cc1 [Compound 100] | -24.5 | -4.99 | 30.1 | 56.3 | 64 | 56.3 | 3.98 | 
COc1ccc(-c2cc(COc3ccccc3)on2)cc1 [Compound 188] | 0 | 0.795 | 20 | 88.1 | 88.2 | 88.1 | 10 | 
Cc1cc(OCC(=O)NC(C)C)ccc1Cl [Compound 11] | 0 | 7.6 | 83.9 | 102 | 101 |  | 3.98 | 
O=[N+]([O-])c1ccc(Cl)cc1N/N=C/c1ccncc1 [Compound 112] | 0 | 1.53 | 54 | 73.8 | 74 | 73.8 | 5.62 | 43
Cc1ccc(-c2nc(C)sc2CC(=O)OCC(=O)Nc2c(F)cccc2F)cc1 [Compound 210] | 13.8 | 9.43 | 20.3 | 113 | 113 | 113 |  | 
CN(C#N)c1nccc(-c2cccs2)n1 [Compound 190] | -30.5 | -25.3 | 6.31 | 79.6 | 87.5 | 79.6 |  | 

SMILES | activation at 0.307 µM (48 h) [%] | activation at 1.53 µM (48 h) [%] | activation at 7.66 µM (48 h) [%] | activation at 38.3 µM (48 h) [%] | Emax [1] [%] | Emax (read-out: Max Response [%]) [%] | EC50 [µM] | Score (Table 8 Compound data)
N#Cc1ccc(OCC(O)CS(=O)(=O)c2ccccc2)cc1 (stereo not drawn) [Compound 195] | -7.88 | -12 | 15.3 | 89.4 | 89.6 | 89.4 | 10 | 
CC(C)(C)c1ccc(C(=O)OCC(=O)Nc2sc3c(c2C#N)CCC3)cc1 [Compound 85] | 3.25 | 13.3 | 71.6 | 101 | 103 | 101 | 5.01 | 
COc1ccc(CCNC(=O)c2nn(C)c3c2CS(=O)(=O)c2ccccc2-3)cc1OC [Compound 74] | -22.8 | -9.73 | 56.7 | 84.2 | 86.2 | 84.2 | 4.47 | 
Cc1ccc(NCc2nnc(SCC(=O)Nc3nnc(C)s3)n2C)cc1 [Compound 51] | -27.9 | -17.6 | 31.4 | 249 | 250 |  | 10 | 
Cn1c(=O)c2c(nc(Sc3ncnn3CC(=O)NC3CCCCC3)n2C)n(C)c1=O [Compound 201] | -21.5 | -17.1 | 8.09 | 69.8 | 74.9 | 69.8 |  | 
COc1ccccc1C(=O)NCC(=O)/N=N/c1c(O)n(C(C)C)c2ccccc12 [Compound 139] | 15.2 | 14.6 | 25 | 81.7 | 82 | 81.7 |  | 
COc1ccc2oc(C[S+]([O-])c3ccccc3)c(C(=O)O)c2c1 (stereo not drawn) [Compound 109] | 5.2 | 10.1 | 20.9 | 174 | 174 | 174 | 12.6 | 
Nc1nccc(-c2ccc(-n3cnc4ccccc43)cc2)n1 [Compound 192] | 0.89 | 2.96 | 15.9 | 76.1 | 76.5 | 76.1 |  | 
CC1CCCCN1c1ncnc(N)c1[N+](=O)[O-] (stereo not drawn) [Compound 52] | -25.7 | 1.73 | 86.4 | 130 | 138 |  | 4.47 | 
CN(CC(=O)Nc1cccc(F)c1)C(=O)c1ccc(-c2ccc(Cl)cc2)o1 [Compound 90] | 2.83 | 8.12 | 27.2 | 146 | 146 | 146 | 11.2 | 
CC(=O)Nc1ccc(NC(=O)c2cc(=O)c3cc(C)cc(C)c3o2)cc1 [Compound 159] | -4.25 | -1.91 | 17.1 | 106 | 107 | 106 |  | 
C=CCN(CC=C)C(=O)c1ccc(OC2CCN(S(=O)(=O)N(C)C)CC2)cc1 [Compound 64] | -6.4 | 3.46 | 95.1 | 129 | 130 | 129 | 5.01 | 
NC(=O)c1cccnc1Oc1ccc(Cl)cc1Cl [Compound 113] | -4.94 | -7.73 | 23.5 | 105 | 106 | 105 | 10 | 
COc1ccc(S(=O)(=O)N(NC2=NS(=O)(=O)c3ccccc32)C(=O)C(C)C)cc1 [Compound 37] | -1.77 | 15.3 | 70.7 | 72.9 | 74.5 |  | 2.51 | 
COc1ccc(C(=O)CN2CCCCC2)cc1 [Compound 181] | 12.4 | 12.9 | 18.9 | 92.8 | 93 | 92.8 |  | 
O=C(Nc1ccccc1F)c1ccc([N+](=O)[O-])s1 [Compound 81] | 1.83 | 5.12 | 24.3 | 215 | 216 | 215 | 12.6 | 
CCOC(=O)/C(C(=O)c1ccccc1)=C(\N)NCCO [Compound 222] | 9.44 | 9.77 | 16.5 | 66.5 | 66.8 | 66.5 |  | 

Source: patent publication US9980943B2, “Methods of treating muscular dystrophy” (BOARD OF REGENTS OF THE NEVADA SYSTEM OF HIGHER EDUCATION, …, priority 2013, dated 2018)
